# The RepoRT retention time repository (doi:10.1007/s00216-015-8540-6)
# Assay: Waters Atlantis T3, 100 × 2.1 mm, 3 µm, 0.1 mL/min, estimated dead time 2.2 min; A: water + 0.01% formic acid; B: methanol + 0.01% formic acid; gradient (min/%B) 0/5 3/5 20/100 29/100
# Details: stereoisomer not certain
row,LC retention time [min],SMILES
1,18,CNCCC=C1c2ccccc2CCc2ccccc21
2,18.3,CC1(C)OC2COC3(COS(N)(=O)=O)OC(C)(C)OC3C2O1 (stereo unspecified)
3,20.6,CC12CCC(=O)C=C1CCC1C2C(O)CC2(C)C1CCC2(O)C(=O)CO (stereo unspecified)
4,21.4,CC1CC2C(C(O)CC3(C)C2CCC3(O)C(=O)CO)C2(C)C=CC(=O)C=C12 (stereo unspecified)
5,13.3,Cc1ncc([N+](=O)[O-])n1CCO
6,17.6,CCC1OC(=O)CC(O)C(C)C(OC2OC(C)C(OC3CC(C)(O)C(O)C(C)O3)C(N(C)C)C2O)C(CC=O)CC(C)C(=O)C=CC(C)=CC1COC1OC(C)C(O)C(OC)C1OC (stereo unspecified)
7,13.2,Cn1c([N+](=O)[O-])cnc1COC(N)=O
8,12.9,COc1cc(Cc2cnc(N)nc2N)cc(OC)c1OC
9,11.8,CC1=C(C(=O)O)N2C(=O)C(NC(=O)C(N)c3ccc(O)cc3)C2SC1 (stereo unspecified)
10,17.9,CN(C)CCC=C1c2ccccc2CCc2ccccc21
11,12.6,Cc1cc2c(s1)Nc1ccccc1N=C2N1CCN(C)CC1
12,15.2,Cn1c(=O)c2c(ncn2C)n(C)c1=O
13,16.7,CN(C)CCC=C1c2ccccc2COc2ccccc21
14,11.3,CC(C)NCC(O)COc1ccc(CC(N)=O)cc1 (stereo unspecified)
15,17.3,C=CC1(C)CC(OC(=O)CSCCN(CC)CC)C2(C)C(C)CCC3(CCC(=O)C32)C(C)C1O (stereo unspecified)
16,13.3,CC(=O)Nc1ccc(O)cc1
17,20,CC12CCC(=O)C=C1CCC1C2C(=O)CC2(C)C1CCC2(O)C(=O)CO (stereo unspecified)

row,LC retention time [min],SMILES
1,11.2,COCCc1ccc(OCC(O)CNC(C)C)cc1 (stereo unspecified)
2,20.2,NC(=O)N1c2ccccc2C=Cc2ccccc21
3,13.4,CCN(CC)CC(=O)Nc1c(C)cccc1C
4,24.8,CC(=O)C1CCC2C3CCC4=CC(=O)CCC4(C)C3CCC12C (stereo unspecified)
5,27.1,CCC(C)(C)C(=O)OC1CC(C)C=C2C=CC(C)C(CCC3CC(O)CC(=O)O3)C21 (stereo unspecified)
6,11.4,CNC(=C[N+](=O)[O-])NCCSCc1ccc(CN(C)C)o1
7,16.2,CC(C)NCC(O)COc1cccc2ccccc12 (stereo unspecified)
8,17.6,CN(C)CCCN1c2ccccc2CCc2ccccc21
9,17.1,CCC1(c2ccccc2)C(=O)NCNC1=O
10,3.04,CN(C)C(=N)N=C(N)N
11,18.7,COc1ccc2nc(S(=O)Cc3ncc(C)c(OC)c3C)[nH]c2c1 (stereo unspecified)
12,17.6,Cc1nnc(SCC2=C(C(=O)O)N3C(=O)C(NC(=O)Cn4cnnn4)C3SC2)s1 (stereo unspecified)
13,14.6,CN1CCN2c3ncccc3Cc3ccccc3C2C1 (stereo unspecified)
14,14.6,Cc1noc(NS(=O)(=O)c2ccc(N)cc2)c1C
15,11.5,CN=C(NC#N)NCCSCc1nc[nH]c1C
16,11.8,CC1=C(C(=O)O)N2C(=O)C(NC(=O)C(N)c3ccccc3)C2SC1 (stereo unspecified)
17,21.8,CC(C(=O)O)c1cccc(C(=O)c2ccccc2)c1 (stereo unspecified)

# The remaining lines, values behind:
row,SMILES,LC retention time [min]
1,CCn1cc(C(=O)O)c(=O)c2cc3c(cc21)OCO3,18.3
2,COc1cccc(C2(O)CCCCC2CN(C)C)c1 (stereo unspecified),14.2
3,CCN(CC)C(=O)C1C=C2c3cccc4[nH]cc(c34)CC2N(C)C1 (stereo unspecified),15.1
4,CN1CCC23c4c5ccc(O)c4OC2C(O)C=CC3C1C5 (stereo unspecified),9.52
5,CN1C2CCC1C(C(=O)O)C(OC(=O)c1ccccc1)C2 (stereo unspecified),15.7
6,CC(N)Cc1ccc2c(c1)OCO2 (stereo unspecified),12.9
7,CN(C)C1C(=O)C(C(N)=O)=C(O)C2(O)C(=O)C3=C(O)c4c(O)cccc4C(C)(O)C3C(O)C12 (stereo unspecified),14.8
8,CNC(C)Cc1ccccc1 (stereo unspecified),12.8
9,CC(=O)Oc1ccc2c3c1OC1C(OC(C)=O)C=CC4C(C2)N(C)CCC341 (stereo unspecified),14.1
10,CNC(C)Cc1ccc2c(c1)OCO2 (stereo unspecified),13
11,COc1ccc(C(CN(C)C)C2(O)CCCCC2)cc1 (stereo unspecified),15.7
12,CCNC(C)Cc1ccc2c(c1)OCO2 (stereo unspecified),13.4
13,CC1(C)SC2C(NC(=O)C(N)c3ccc(O)cc3)C(=O)N2C1C(=O)O (stereo unspecified),11.2
14,CCOP(=O)(Sc1ccccc1)Sc1ccccc1,16.2
15,CNC(C)C(O)c1ccccc1 (stereo unspecified),11.7
16,O=C1CN=C(c2ccccc2)c2cc([N+](=O)[O-])ccc2N1,20.4

row,SMILES,LC retention time [min]
1,COc1ccc2c3c1OC1C(=O)CCC4(O)C(C2)N(C)CCC314 (stereo unspecified),12.1
2,CC(=O)OC1C=CC2C3Cc4ccc(O)c5c4C2(CCN3C)C1O5 (stereo unspecified),12.5
3,CCC(C(N)=O)N1CCCC1=O (stereo unspecified),13.7
4,CCC1OC(=O)C(C)C(OC2CC(C)(OC)C(O)C(C)O2)C(C)C(OC2OC(C)CC(N(C)C)C2O)C(C)(OC)CC(C)C(=O)C(C)C(O)C1(C)O (stereo unspecified),18.7
5,CN(C)C1C(=O)C(C(N)=O)=C(O)C2(O)C(=O)C3=C(O)c4c(O)cccc4C(C)(O)C3CC12 (stereo unspecified),14.5
6,CN1CCN2c3ncc(O)cc3Cc3ccccc3C2C1 (stereo unspecified),13.6
7,CC(N)Cc1ccccc1 (stereo unspecified),12.6
8,CCCCC(=O)N(Cc1ccc(-c2ccccc2-c2nn[nH]n2)cc1)C(C(=O)O)C(C)C (stereo unspecified),24.4
9,CCC(=O)C(CC(C)N(C)C)(c1ccccc1)c1ccccc1 (stereo unspecified),17.6
10,CC(N)C(O)c1ccccc1 (stereo unspecified),10.9
11,CCCCCc1cc(O)c2c(c1C(=O)O)OC(C)(C)C1CCC(C)=CC21 (stereo unspecified),26.9
12,CCC1OC(=O)C(C)C(OC2CC(C)(OC)C(O)C(C)O2)C(C)C(OC2OC(C)CC(N(C)C)C2O)C(C)(O)CC(C)CN(C)C(C)C(O)C1(C)O (stereo unspecified),18.7
13,CCOc1cc(OC)c(OCC)cc1CC(C)N (stereo unspecified),3.15
14,COC(=O)C1C(OC(=O)c2ccccc2)CC2CCC1N2C (stereo unspecified),14.3
15,COc1ccc2c3c1OC1C(O)C=CC4C(C2)N(C)CCC341 (stereo unspecified),11.8
16,COC12CCC3(CC1C(C)(O)C(C)(C)C)C1Cc4ccc(O)c5c4C3(CCN1CC1CC1)C2O5 (stereo unspecified),16.8
